Results reported in the supplement of paper PMC10307832.

Assays:
Assay in all cases: relative viability (nuclei count vs DMSO), 5 days (fraction); higher = more cells survive
Masitinib + Navitoclax = compound: Cc1ccc(NC(=O)c2ccc(CN3CCN(C)CC3)cc2)cc1Nc1nc(-c2cccnc2)cs1 [Masitinib] + CC1(C)CCC(c2ccc(Cl)cc2)=C(CN2CCN(c3ccc(C(=O)NS(=O)(=O)c4ccc(N[C@H](CCN5CCOCC5)CSc5ccccc5)c(S(=O)(=O)C(F)(F)F)c4)cc3)CC2)C1 [Navitoclax] (partner 0.5 µM)
How it was run: (§1)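 For relative viability, nuclei counts in treated wells were divided by those in vehicle wells. Lung cancer cell lines had been pin-tool dosed in 1536-well plates the day after seeding and cultured for 5 days, then fixed and stained in one step (final 0.05% Triton X-100, 1% formaldehyde, 1 ug/ml Hoechst) and imaged at 4×. Doses were one drug alone or a fixed anchor-drug dose plus five library-drug doses (not always all listed) in √10 steps, and values are duplicate-plate medians.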

Masitinib + Decitabine = compound: Cc1ccc(NC(=O)c2ccc(CN3CCN(C)CC3)cc2)cc1Nc1nc(-c2cccnc2)cs1 [Masitinib] + Nc1ncn([C@H]2C[C@H](O)[C@@H](CO)O2)c(=O)n1 [Decitabine] (partner 2 µM)
How it was run: as §1

[1] = compound: CC1=CC(=CC=C1)NC2=NC(=CS2)C3=CC=NC=C3 + COc1cc2c(Oc3ccc(NC(=O)C4(C(=O)Nc5ccc(F)cc5)CC4)cc3F)ccnc2cc1OCCCN1CCOCC1 [Foretinib] (partner 0.25 µM)
How it was run: as §1

[2] = compound: CC1=CC(=CC=C1)NC2=NC(=CS2)C3=CC=NC=C3 + Nc1ncn([C@H]2C[C@H](O)[C@@H](CO)O2)c(=O)n1 [Decitabine] (partner 2 µM)
How it was run: as §1

Cell Line	relative viability (Masitinib + Navitoclax; first compound 0.01 µM)	relative viability (Masitinib + Navitoclax; first compound 0.03162 µM)	relative viability (Masitinib + Navitoclax; first compound 0.1 µM)	relative viability (Masitinib + Navitoclax; first compound 0.3162 µM)	relative viability (Masitinib + Navitoclax; first compound 1 µM)	relative viability (Masitinib + Decitabine; first compound 0.01 µM)	relative viability (Masitinib + Decitabine; first compound 0.03162 µM)	relative viability (Masitinib + Decitabine; first compound 0.1 µM)	relative viability (Masitinib + Decitabine; first compound 0.3162 µM)	relative viability (Masitinib + Decitabine; first compound 1 µM)	relative viability ([1]; first compound 0.08 µM)	relative viability ([1]; first compound 0.253 µM)	relative viability ([1]; first compound 0.8 µM)	relative viability ([1]; first compound 2.53 µM)	relative viability ([1]; first compound 8 µM)	relative viability ([2]; first compound 0.08 µM)	relative viability ([2]; first compound 0.253 µM)	relative viability ([2]; first compound 0.8 µM)	relative viability ([2]; first compound 2.53 µM)	relative viability ([2]; first compound 8 µM)
BEN	0.066	0.0657	0.066	0.0612	0.194	0.727	0.739	0.753	0.699	0.728	0.615	0.435	0.624	0.392	0.629	0.636	0.687	0.772	0.588	0.781
COR-L23	1.13	0.892	1.19	1.29	1.14	0.388	0.412	0.463	0.329	0.359	0.986	0.945	0.886	0.864	0.87	0.404	0.378	0.429	0.379	0.388
COR-L 105	0.747	0.688	0.781	0.926	0.774	0.617	0.658	0.619	0.61	0.639	1.16	0.977	1.01	1.01	0.562	0.648	0.691	0.624	0.572	0.533
ChaGo-K-1	1.36	0.979	1.31	1.1	0.839	0.553	0.526	0.536	0.526	0.534	0.977	0.938	0.931	0.902	0.85	0.528	0.528	0.519	0.522	0.499
EKVX		0.688	0.865	0.577	0.968	0.342	0.31	0.35		0.541	0.941	0.726	0.578	0.733	0.75	0.289	0.397		0.356	0.316
EMC-BAC-2	1.08	0.962	1.16	1.37	1.45	0.771		0.918	1.02	0.957	0.888	0.993	1	0.948	0.879	0.916		0.91	0.918	0.884
EPLC-272H	1.08	1.13	1.08	1.23	1.06	0.369	0.344	0.358	0.388	0.313	0.657	0.711	0.623	0.597	0.723	0.339	0.37	0.348		0.352
H3255	0.441	0.409	0.496	0.351	0.409	0.488	0.67	0.439	0.626	0.534	0.895	0.464	0.909	0.822	0.875	0.576	0.506	0.581	0.601	0.553
HARA	1.16	1.06	1.2	1.2	1.19	0.474	0.4	0.634		0.508	0.522	0.952	0.848	0.769	0.821	0.508	0.438	0.539	0.48	0.664
HCC-15	0.667	0.606	0.819	0.647	0.725	0.58	0.546	0.659	0.582	0.638	0.942	1.01	0.928	1.07	0.922	0.621	0.662	0.58	0.582	0.625
HCC-78	0.722	0.822	0.839	0.77	0.763	0.634	0.637	0.605	0.693	0.615		0.484	0.558	0.537	0.568	0.727	0.613	0.614	0.613	0.661
HCC-366	1.04	1.03	1.2	1.09	1		0.339	0.369	0.389	0.33	0.859	0.89	0.883	0.885	0.9	0.329	0.357	0.308	0.309	0.263
HCC-827	0.924	0.996	1.01	0.942	1.01	0.296	0.342	0.295	0.27	0.312	1.02	1	0.997	1.02	0.958	0.298	0.317	0.352	0.287	0.328
HOP-62	0.93	1.02	0.76	1.11	1.05	0.22	0.222	0.23	0.201	0.212	1.08	1.07	1.12	1.15	1.04	0.219	0.218	0.261	0.244	0.247
LC-2-ad	0.486	0.412	0.667	0.485	0.408	0.837	0.795	0.85	0.795	0.894	0.836		0.901	0.909	1.07	0.754	0.776	0.793	0.799	0.69
LCLC-97TM1	0.35	0.42	0.0511	0.639	0.355	0.273	0.233	0.281	0.167	0.225	0.966	0.906	0.841	1.02	0.929	0.204	0.204	0.233	0.254	0.245
LK-2	1.01	0.855	1.06	1.21	0.885	0.342	0.261	0.366	0.249	0.281		1.18	1.36		1.67	0.298	0.273	0.304	0.204	0.563
LOU-NH91	0.651	0.653	0.791	0.589	0.673	0.797	0.754	0.792	0.785	0.783	0.794	0.853	0.807	0.896	0.903	0.744	0.797	0.728	0.825	0.78
LU99A	0.755	0.758	0.887	0.97	0.791	0.921	0.916	0.901	0.997	0.986	0.807	0.805	0.803	0.915	0.941	0.889	0.939	0.787	0.709	0.879
LXF-289	0.843	0.927	0.966	0.992	0.934	0.332	0.394	0.435	0.369	0.41	0.926	1.03	0.994	0.938	0.823	0.353	0.383	0.391	0.375	0.363
NCI-H23	0.879	0.789	0.966	0.706	0.872	0.312	0.346	0.341	0.274	0.262	1.03	0.963	1.03	0.873	0.895	0.327	0.274	0.32	0.299	0.32
NCI-H322M	1.18	1.15	1.3	1.22	1.26	0.626	0.733	0.612	0.719	0.706	0.788	0.924	0.89	1.01	0.915	0.736	0.703	0.67	0.706	0.691
NCI-H441	0.782	0.78	0.522	0.749	0.602	0.214	0.23	0.262	0.233	0.244	0.754	0.791	1.12	0.857	0.842	0.266	0.263	0.302	0.226	0.243
NCI-H460	1.22	0.834	1.27	1.33	1.26	0.307	0.378	0.45	0.455	0.462	0.915	0.894	0.948	0.924	0.82	0.445	0.432	0.464	0.405	0.402
NCI-H520	1.21		1.17	1.05	1.08	0.482	0.482	0.513	0.59	0.437	0.773	0.778	0.71	0.647	0.938	0.55	0.468	0.541	0.586	0.61
NCI-H596	0.876	0.855	0.86	0.894	0.866	0.994	0.959	1.11	1.14	0.934	0.804	0.999	0.728	0.805	0.838	0.923	1.02	0.836	0.899	0.91
NCI-H647	1.14	1.1	1.08	1.23	1.09	0.369	0.318	0.487	0.408	0.364	0.994	1.15	1.03	1.17	1.1	0.3	0.437	0.443	0.365	0.436
